Measurements taken from US20210251883A1, “METHOD FOR PREPARING ENZYME-TREATED ZIZANIA LATIFOLIA TURCZ. EXTRACT HAVING INCREASED TRICIN CONTENT, AND COMPOSITION FOR WHITENING, WRINKLE REDUCTION, ANTI-INFLAMMATION, ANTI-ALLERGY AND MOISTURIZATION, PREPARED THEREBY” (BTC CORPORATION, priority 2018, published 2021).

Experiments:
[1] = test system: B16-F0 cells; test: inhibition of melanin production in melanin cell line B16-F0 (α-MSH/IBMX stimulated); type: cell-based, mouse; conditions: concentration series of single substance
Method: The whitening effect of the Zizania latifolia Turcz. extract prepared in the above Preliminary Experiments 2 to 4 was confirmed. First, mouse-derived melanin cell line B16-F0 cells were distributed from the American Type Culture Collection (ATCC, USA), and using DMEM medium (ATCC, ATCC 30-2002, USA) to which 10% FBS and 1% antibiotics (penicillin/streptomycin) were added, the cells were subcultured 2 to 3 times in an incubator at 37° C. in the presence of 5% CO2 and used.
Second, the ability of the Zizania latifolia Turcz. extract and tricin to inhibit melanin production in the mouse-derived melanin cell line B16-F0 was measured. B16-F0 cells were dispensed into a 6-well plate at 5×10^5 cells/well and pre-cultured in a 5% CO2 incubator for 20 to 24 hours, and then each extract sample was treated and cultured for 48 hours. […]
The melanoma cells adhered to the surface of the 6-well plate were removed from the cultured cells, dispensed into a 1.5 mL tube, and centrifuged at 13,000 rpm for 10 minutes using a centrifuge maintained at 4° C. […] After reacting for 1 hour in an oven at 60° C., 100 μL was dispensed to each well in a 96-well plate and O.D was measured with an ELISA reader (405 nm). […]

[2] = test system: SKH-1 hairless mouse; test: UVB-irradiated wrinkle-induced SKH-1 hairless mouse animal experiment; type: in vivo
From the text: The anti-wrinkle improvement and moisturizing effects were confirmed through animal experiments for the enzyme-treated extract of Zizania latifolia Turcz. prepared in the above Example 1. For the experiment, biochemical analysis equipment (Roche Ltd, Basel, Switzerland), glass teflon homogenizer (Chang shin scientific Co., Korea), microplate reader (Bio-TEK, USA), protein quantification equipment (Chemi-Doc; BIORAD, USA), a centrifuge (Hanil FLETA5, Korea), a water bath (Thermo minder taitec, Japan), and a deep freezer (Sanyo, Japan) were used. In addition, glass Teflon homogenizer (Daihan Scientific Group, Korea), UV-spectrophotometer (Shimadzu UV-1201, Japan), high-speed centrifuge (Hanil HMR-1610V, Korea), medical freezer (Sanyo, Japan)), a microplate reader (Bio-TEK), and protein quantification equipment (Chemi-Doc; BIORAD) were used. […]
First, the body weight of each animal was measured to observe the change in body weight. […]

[3] = test system: RAW264.7 cells; test: NO assay in lipopolysaccharide-induced macrophage cell line RAW264.7; type: cell-based; conditions: concentration series of single substance; versus LPS
Method: The production of NO was confirmed through the NO assay, and the specific process was as follows: The macrophage cell line RAW264.7 was distributed from the Korea Cell Line Bank (KCLB, Seoul, Korea), and using DMEM medium (Welgene, Gyeongsan, Korea) to which 10% FBS and 1% antibiotics (penicillin/streptomycin) were added, the cells were subcultured 2 to 3 times in an incubator at 37° C. in the presence of 5% CO2 and used.
RAW264.7 cells were dispensed into a 96-well plate at […] and pre-cultured in a 5% CO2 incubator for 20 to 24 hours, and each extract sample was treated and cultured for 24 hours. […] After the reaction was completed, optical density (O.D) was measured with an ELISA reader at a wavelength of 540 nm. At this time, the measured O.D was expressed as a percentage (%) compared with the O.D value in the cells to which lipopolysaccharide was added.
Second, NO assay was performed to measure the anti-inflammatory effect of the Zizania latifolia Turcz. extract and tricin using RAW264.7. […] After the reaction was completed, optical density (O.D) was measured with an ELISA reader at a wavelength of 540 nm. At this time, the measured O.D was expressed as a percentage (%) compared with the O.D value in the cells to which lipopolysaccharide was added. […]

[4] = test system: CCD-986sk fibroblast cells, human dermal fibroblasts (HDF); test: procollagen type I C-peptide EIA, collagen synthesis in fibroblasts; type: cell-based; conditions: concentration series of single substance
Method: The anti-wrinkle effect of the Zizania latifolia Turcz. extract prepared in Preliminary Experiments 2 to 4 was confirmed. First, human-derived CCD-986sk fibroblast cells were distributed from Korea Culture Tissue Collection (KCTC, Korea), and human dermal fibroblasts (HDF) were distributed from Seorin Bio. In addition, CCD-986sk fibroblasts were subcultured 2 to 3 times in an incubator at 37° C. in the presence of 5% CO2 using IMDM medium (ATCC, ATCC 30-2005, USA) supplemented with 10% FBS and 1% antibiotics (penicillin/streptomycin) and used. […]
Second, procollagen and MMP families (MMP-1, 2, 3, 9, 13) are factors that are discharged to the outside of the cell culture solution, and the cell culture solution reacted with the sample was collected and used. […] (standard sample), procollagen type I C-peptide EIA kit manufactured by Takara was used, the quantification curve was measured using PIP to calculate the amount of collagen synthesis for each sample. In addition, by measuring the inhibitory ability of metalloproteinase-1 (MMP-1), MMP-2, MMP-3, MMP-9, and […], which are factors affecting wrinkles, Zizania latifolia Turcz. enzyme treatment (standard sample) and tricin were evaluated for wrinkle improvement effect. The inhibitory ability of MMP-1, 2, 3, 9, 13 was measured using a product manufactured by Abcam.

[5] = test system: RBL-2H3 cells; test: β-hexosaminidase release in IgE/antigen-stimulated RBL-2H3 cells; type: cell-based, rat; conditions: concentration series of single substance; versus DNP-HSA
Method: The anti-allergic efficacy of the Zizania latifolia Turcz. extract prepared in the above Preliminary Experiments 2 to 4 was confirmed. First, RBL-2H3 cells, a rat basophilic leukemia cell line, were purchased from Korea Cell Line Bank (KCLB, Seoul, Korea). RBL-2H3 cells were cultured in MEM (Gibco BRL, NY, USA) medium containing 10% FBS and 1% penicillin/streptomycin in an incubator at 37° C. and 5% CO2.
Second, the inhibitory effect of the extract on the release of β-hexosaminidase was confirmed in RBL-2H3 cells. RBL-2H3 cells were dispensed into a 24-well plate at 2×10^5 cells per well and stimulated with anti-DNP IgE (450 ng/mL) overnight at 37° C. […] Then, the reaction was stopped by immersing in an ice water bath for 10 minutes. 25 μL of the supernatant was transferred to a 96-well plate and 25 μL of 0.1 M citrate buffer (pH 4.5) in which the substrate (1 mM p-nitrophenyl-nacetyl-β-D-glucosaminide) is dissolved, was added and reacted at 37° C. for 1 hour. Thereafter, 200 μL of a stop solution (0.1 M Na2CO3/NaHCO3, pH 10.0) was added to stop the reaction, and the absorbance was measured at 405 nm using a microplate reader.

In the case of COc1cc(-c2cc(=O)c3c(O)cc(O)cc3o2)cc(OC)c1O [tricin, Tricin], the “melanin generation according to the concentration (FIG. 9)” value [1] is reported as “decreased in a concentration-dependent manner”, the “moisture of the skin surface” value ([2]; T group, 0.3 mg/kg oral, 14 weeks, UVB, FIG. 16) is reported as “maintained” and the “SILFLO microscopic observation of wrinkles versus group C” value ([2]; group T, tricin 2 mg/kg as printed, until the 8th week of UVB irradiation) is reported as “wrinkles were relatively less formed compared to group C”. For the same molecule, the “NO generation according to the concentration (FIG. 7)” value [3] was “decreased in a concentration-dependent manner”, the “collagen generation according to the concentration (FIG. 11)” value [4] was “increased in a concentration-dependent manner” and the “β-hexosaminidase release rate according to the concentration (FIG. 13)” value [5] was “decreased in a concentration-dependent manner”.
